Test results as given in BindingDB's records for doi:10.1016/S0960-894X(01)80235-3 (1994).

The compounds below were run against O-acyltransferase (Oryctolagus cuniculus, UniProt G1SFD9) (assay: ChEBML_28168).
Protocol: In vitro Acyl coenzyme A:cholesterol acyltransferase inhibition by incubation with [14C]oleolyl-CoA and intestinal microsomes isolated from cholesterol-fed rabbits.

Sequence of O-acyltransferase (G1SFD9 1-524): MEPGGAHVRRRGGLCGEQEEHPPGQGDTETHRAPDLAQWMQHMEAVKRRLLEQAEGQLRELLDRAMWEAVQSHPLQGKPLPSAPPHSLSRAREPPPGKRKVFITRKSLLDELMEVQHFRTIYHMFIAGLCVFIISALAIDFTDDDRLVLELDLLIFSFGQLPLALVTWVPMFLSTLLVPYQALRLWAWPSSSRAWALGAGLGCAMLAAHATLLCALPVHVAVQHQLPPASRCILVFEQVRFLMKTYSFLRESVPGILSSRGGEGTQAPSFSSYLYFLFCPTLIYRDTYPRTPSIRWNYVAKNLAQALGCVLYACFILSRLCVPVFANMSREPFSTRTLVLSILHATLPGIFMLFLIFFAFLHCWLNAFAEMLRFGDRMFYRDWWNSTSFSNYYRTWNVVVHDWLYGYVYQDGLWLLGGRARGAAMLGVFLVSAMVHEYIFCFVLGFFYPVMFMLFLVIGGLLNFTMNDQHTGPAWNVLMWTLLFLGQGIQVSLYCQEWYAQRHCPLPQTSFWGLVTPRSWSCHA

IC50, 5 µM:
CCCCCCCC/C=C\CCCCCCCc1cc(=O)n(-c2ccc(F)cc2F)[nH]1 [2-(2,4-Difluoro-phenyl)-5-((Z)-heptadec-8-enyl)-2,4-dihydro-pyrazol-3-one], CCCCCCCC/C=C\CCCCCCCc1cc(=O)n(-c2ccc(C)cc2C)[nH]1 [2-(2,4-Dimethyl-phenyl)-5-((Z)-heptadec-8-enyl)-2,4-dihydro-pyrazol-3-one], CCCCCCCC/C=C\CCCCCCC[c+]1cc(O)n(-c2ccc([N+](=O)[O-])cc2[N+](=O)[O-])[n-]1 [2-(2,4-Dinitro-phenyl)-5-((Z)-heptadec-8-enyl)-2,4-dihydro-pyrazol-3-one], CCCCCCCCCCc1cc(=O)n(-c2c(C)cccc2C)[nH]1 [5-Decyl-2-(2,6-dimethyl-phenyl)-2,4-dihydro-pyrazol-3-one]
